Data set [1] relates to volunteer panelists (axilla). Put plainly: standard hot room thermal efficacy (sweat reduction), test product on one axilla vs control on the other. The settings on record: for antiperspirant efficacy compared with conventional enhanced antiperspirant salt (EAZCH): in words, from Table 2 data. It counts as in vivo, human. From the text:
The above-described enhanced efficacy salt may be tested for thermal efficacy (i.e. hot room sweat reduction) using volunteer panelists in a standard hot room protocol. The test product (vehicle plus enhanced efficacy salt) is applied to one axilla and control product (vehicle only or vehicle plus standard efficacy antiperspirant salt) is applied to the other axilla. The above-described enhanced efficacy salt typically provides a sweat reduction of about 57–62% versus about 47–52% obtained with standard efficacy salt, when suspended as an 18–19% USP active in a liquid volatile silicone carrier vehicle. Also, a freshly prepared aqueous solution of the above-described enhanced efficacy salt (20% USP active) typically provides a sweat reduction of about 63–69% versus about 48–54% obtained with standard efficacy salt in aqueous solution at the same concentration.
The above-described high peak 5 enhanced efficacy salts of Example 1 are tested for thermal efficacy (i.e. hot room sweat reduction) using volunteer panelists in a standard hot room protocol. The test product is applied to one axilla and control product is applied to the other axilla in an AvB comparison. In all cases, the test product comprises vehicle (as described below) plus high peak 5 enhanced efficacy salt (E^5AZCH). The control product comprises vehicle plus conventional enhanced efficacy (high peak 4:3) antiperspirant salt (EAZCH), except where the vehicle is a clear gel formulation, in which case a standard efficacy salt (AZCH) is used because of the instability of the conventional enhanced salt in aqueous formulations. To counteract this instability, the formulation identified as “Aqueous” below, is freshly prepared with powdered EAZCH just prior to being tested. The results are reported as the average sweat reduction (“S.R.”) gain over the control (i.e. the absolute percentage point increase in sweat reduction over the control).

The nature of data set [2]: HPLC aluminum peak distribution after storage (stability of enhanced state). It counts as physicochemical. Conditions: aqueous solution. How it is done: Throughout the specification reference to HPLC analysis means that chromatograms are obtained as follows: Salt solutions are evaluated for aluminum polymer distribution by HPLC at a concentration of about 10% (USP) Al—Zr salt. If the solution to be analyzed is at a higher salt concentration, it is diluted with sufficient water to bring the salt concentration to about 10%. A 1.0 μL sample is injected into a Waters U6K injector, then pumped through a 4.6 mm×500 mm column packed with Nucleosil 100-5 silica with pore size of 100 angstroms and particle size of 5 μm (Keystone Scientific Inc.) using a 0.01M aqueous nitric acid solution as the eluant. The flow rate of the mobile phase is controlled at 0.5 mL/min with an LDC/Milton Roy Constametric-II metering pump (ThermoQuest Inc.). HPLC profiles are recorded and processed with a computerized system that includes the Millennium 32 Chromatography Manager software from Waters Corp. A Waters 2410 differential refractometer is used as the refractive index detector. The HPLC profiles are read from left to right (higher to lower molecular weight). Following this technique, peak 3 typically appears at a retention time of about 11.0–12.0 minutes (Kd≅0.58–0.61), peak 4 typically appears at a retention time of about 11.9–12.9 minutes (Kd≅0.62–0.72), and peak 5 typically appears at a retention time of about 13.3–14.0 minutes (Kd≅0.83–0.91). […]

[3] abbreviates: aqueous solution, 20% USP active (enhanced salt freshly prepared).
Setting [4] is: suspended as 18–19% USP active in liquid volatile silicone carrier vehicle.

This is an account of results in patent US6991780B2, “Aluminum-zirconium antiperspirant salts with low M:CI ratio” (The Gillette Company, priority 2000, dated 2006).

Where “and” joins values, the source holds several entries; their conditions need not be identical. Identical values can stand only once.

Take “aluminum-zirconium chlorohydrate [salt E]”: the “antiperspirant efficacy compared with conventional enhanced antiperspirant salt (EAZCH)” value in data set [1] (listed as E) was “just as efficacious”. Also, in data set [1] (vehicle Aqueous (20% USP AP active), control EAZCH freshly prepared, listed as E), the “Avg. S.R. Gain Over Control” value is 1.3 percentage point.
With “aluminum-zirconium chlorohydrate [salt F]”, the “antiperspirant efficacy compared with conventional enhanced antiperspirant salt (EAZCH)” value in data set [1] (listed as F) is reported as “more efficacious”. For the same substance, the “Avg. S.R. Gain Over Control” value in data set [1] (vehicle Aqueous (20% USP AP active), control EAZCH freshly prepared, listed as F) is recorded as 4.5 percentage point; in data set [1] (vehicle Solid (23.5% AP active), control EAZCH, listed as F), 4.0 percentage point.
For “aluminum-zirconium chlorohydrate-gly [AZCH, reference compound]”, the sweat reduction is 48–54% in data set [1] (setting [3]) and 47–52% in data set [1] (setting [4]).
“aluminum-zirconium chlorohydrate [salt D]”: the “antiperspirant efficacy compared with conventional enhanced antiperspirant salt (EAZCH)” value in data set [1] (listed as D) is recorded as “more efficacious”. Besides, the “Avg. S.R. Gain Over Control” value in data set [1] (vehicle Aqueous (20% USP AP active), control EAZCH freshly prepared, listed as D) was 5.9 percentage point and 4.6 percentage point; in data set [1] (vehicle Roll-On (20.0% AP active), control EAZCH, listed as D) it was 8.7 percentage point.
In the case of “aluminum-zirconium chlorohydrate [salt G]”, the “antiperspirant efficacy compared with conventional enhanced antiperspirant salt (EAZCH)” value in data set [1] (listed as G) is recorded as “just as efficacious”. In addition, the “Avg. S.R. Gain Over Control” value in data set [1] (vehicle Solid (23.5% AP active), control EAZCH, listed as G) stood at 2.1 percentage point.
On to “aluminum-zirconium chlorohydrate [salt K]”, for which the “antiperspirant efficacy compared with conventional enhanced antiperspirant salt (EAZCH)” value in data set [1] (listed as K) is on record as “just as efficacious”. The “Avg. S.R. Gain Over Control” value in data set [1] (vehicle Aqueous (20% USP AP active), control EAZCH freshly prepared, listed as K) is reported as 1.7 percentage point.
Regarding “aluminum-zirconium chlorohydrate [salt H]”, the “antiperspirant efficacy compared with conventional enhanced antiperspirant salt (EAZCH)” value in data set [1] (listed as H) is on record as “just as efficacious”. The “Avg. S.R. Gain Over Control” value in data set [1] (vehicle Aqueous (20% USP AP active), control EAZCH freshly prepared, listed as H) came to 0.3 percentage point.
With “aluminum-zirconium chlorohydrate [salt A]”, the “antiperspirant efficacy compared with conventional enhanced antiperspirant salt (EAZCH)” value in data set [1] (listed as A) is “more efficacious”. In data set [1] (vehicle Roll-On (20.0% AP active), control EAZCH, listed as A), the “Avg. S.R. Gain Over Control” value turned out to be 5.8 percentage point.
As to “aluminum-zirconium tetrachlorohydrate [EAZCH, reference compound]”, the “stability of enhanced state (peak 4:3 ratio) in aqueous form” value in data set [2] is “peak 4:3 ratio deteriorates very quickly”. The sweat reduction in data set [1] (setting [3]) is on record as 63–69%; in data set [1] (setting [4]) it was 57–62%.
Take “aluminum-zirconium chlorohydrate [salt J]”: the “antiperspirant efficacy compared with conventional enhanced antiperspirant salt (EAZCH)” value in data set [1] (listed as J) is listed as “more efficacious”. Moreover, the “Avg. S.R. Gain Over Control” value in data set [1] (vehicle Aqueous (20% USP AP active), control EAZCH freshly prepared, listed as J) is listed as 4.3 percentage point.
For the substance “aluminum-zirconium chlorohydrate [salt C]”, in data set [1] (after storage of the clear gel at high temperature), the “retention of efficacy on storage” value is on record as “maintains its high efficacy”. The “antiperspirant efficacy compared with current commercial clear gel product (standard efficacy salt)” value in data set [1] (formulated as clear gel) is listed as “substantially more efficacious”. Besides, in data set [1] (listed as C), the “antiperspirant efficacy compared with conventional enhanced antiperspirant salt (EAZCH)” value is on record as “more efficacious”. Further, the “Avg. S.R. Gain Over Control” value in data set [1] (vehicle Aqueous (20% USP AP active), control EAZCH freshly prepared, listed as C) turned out to be 4.2 percentage point; in data set [1] (vehicle Clear Gel (23.5% AP active), control AZCH), 15.9 percentage point; in data set [1] (vehicle Clear Gel aged 3 months at 45° C., control AZCH), 13.3 percentage point.
Regarding “aluminum-zirconium octachlorohydrate-gly [salt B]”, the “antiperspirant efficacy compared with conventional enhanced antiperspirant salt (EAZCH)” value in data set [1] was “more efficacious”. The “retention of efficacy on storage” value in data set [1] (stored as concentrated aqueous solution for 1.5 years) is “retains its superior efficacy”. In addition, the “Avg. S.R. Gain Over Control” value in data set [1] (vehicle Aqueous, aged 1.5 years, control EAZCH) turned out to be 7.0 percentage point.
